Source: US8795979B2, “Hydrolase enzyme substrates and uses thereof” (General Atomics, priority 2011, dated 2014)
One block for each compound: values may come before it.

Columns and labels:
Assay type in all cases: biochemical
[1] = target: T1, aryl alcohol dehydrogenase (AAD) (Pseudomonas putida, UniProt P39849); test: Kinetic constants of AAD; details: recombinant Pseudomonas putida AAD
T1 construct: made in house; host or cells: E. coli
T1 sequence (P39849 1-366): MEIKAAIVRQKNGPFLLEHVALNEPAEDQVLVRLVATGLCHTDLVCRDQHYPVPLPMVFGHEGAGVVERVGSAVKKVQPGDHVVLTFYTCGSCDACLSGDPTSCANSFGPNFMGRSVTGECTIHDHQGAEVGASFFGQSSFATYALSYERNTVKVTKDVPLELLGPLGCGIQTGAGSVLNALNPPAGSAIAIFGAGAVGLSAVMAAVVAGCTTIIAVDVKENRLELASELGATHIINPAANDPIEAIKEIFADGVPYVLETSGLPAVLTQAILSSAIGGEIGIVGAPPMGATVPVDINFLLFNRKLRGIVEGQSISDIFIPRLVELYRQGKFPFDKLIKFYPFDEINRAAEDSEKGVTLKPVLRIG
Source text: AAO was purified from Pleurotus eryngii using the procedures described in Guillen, F. et al., “Substrate specificity and properties of aryl-alcohol oxidase from the ligninolytic fungus Pleurotus eryngii,” Eur. J. Biochem., 209:603-611 (1992). The purification steps include concentration, anion exchange chromatography and hydrophobic interaction chromatography. DNA construct for recombinant production of Pseudomonas putida AAD was made based on the DNA sequence disclosed in Shaw, J. P. et al., Kinetic studies on benzyl alcohol dehydrogenase encoded by TOL plasmid pWW0,” J. Biol. Chem., 268:10842-10850 (1993), and the recombinant Pseudomonas putida AAD was made by overexpression in E. coli. The cycling system was combined with chemiluminescent (lumino)-hydrogen peroxide-horseradish peroxidase) reaction to form a sensitive assay.
For AAD, KNADH=9.1±2 μM; Kp-Anisyl aldehyde=6.6±0.8 μM; and kcat=30/s.

[2] = test system: beta-galactosidase; test: Hydrolysis by beta-galactosidase coupled with aryl alcohol oxidase, H2O2 detection; details: 10 mM substrate, 10 unit/ml beta-galactosidase and 20 unit/ml aryl alcohol oxidase, 37° C., 30 min
Source text: (§1) The aryl alcohol dehydrogenase used in this example was recombinantly produced based on the description in Guillen and Evans, Appl. Environmental Microbiol., 60(8):2811-17 (1994) and Reiser et al., J. Biol. Chem., 269(45):28152-28159 (1994).

[3] = test system: aryl alcohol oxidase; test: Incubation with aryl alcohol oxidase alone, H2O2 detection; details: no beta-galactosidase
Source text: as §1

- KNADH (AAD) [1]: 9.1 ± 2 µM
Compound: NC(=O)C1=CN([C@@H]2O[C@H](COP(=O)(O)OP(=O)(O)OC[C@H]3O[C@@H](n4cnc5c(N)ncnc54)[C@H](O)[C@@H]3O)[C@@H](O)[C@H]2O)C=CC1 [NADH, reference compound]

Compound: COc1ccc(C=O)cc1 [p-Anisyl aldehyde]
- Kp-Anisyl aldehyde (AAD) [1]: 6.6 ± 0.8 µM
- kcat (AAD) [1]: 30 s⁻¹

Compound: COc1ccc(CO[C@@H]2OC(CO)[C@H](O)[C@@H](O)C2O)cc1 (stereo partly drawn) [p-MOBG, p-Methoxybenzyl-β-D-Galactopyranoside]
- generation of H2O2 (detected by peroxidase in the presence of 4-AA and TOOS at 560 nm) [2]: resulted in generation of H2O2
- H2O2 detected on incubation with aryl alcohol oxidase alone [3]: no H2O2 detected
